How the values were obtained:
Assay in all cases: cells
CaR-1 = assay type: functional, cell-based, Homo sapiens; conditions: Homo sapiens, CaR-1
Description: SANGER: Inhibition of human CaR-1 cell growth in a cell viability assay.

D-502MG = assay type: functional, cell-based, Homo sapiens; conditions: Homo sapiens, D-502MG
Description: SANGER: Inhibition of human D-502MG cell growth in a cell viability assay.

DOK = assay type: functional, cell-based, Homo sapiens; conditions: Homo sapiens, DOK
Description: SANGER: Inhibition of human DOK cell growth in a cell viability assay.

ESS-1 = assay type: functional, cell-based, Homo sapiens; conditions: Homo sapiens, ESS-1
Description: SANGER: Inhibition of human ESS-1 cell growth in a cell viability assay.

EW-18 = assay type: functional, cell-based; conditions: Homo sapiens
Description: SANGER: Inhibition of human EW-18 cell growth in a cell viability assay.

EW-3 = assay type: functional, cell-based; conditions: Homo sapiens
Description: SANGER: Inhibition of human EW-3 cell growth in a cell viability assay.

HCC1954 = assay type: functional, cell-based, Homo sapiens; conditions: Homo sapiens, HCC1954
Description: SANGER: Inhibition of human HCC1954 cell growth in a cell viability assay.

HCE-4 = assay type: functional, cell-based, Homo sapiens; conditions: Homo sapiens, HCE-4
Description: SANGER: Inhibition of human HCE-4 cell growth in a cell viability assay.

HMV-2 cell line = assay type: functional, cell-based, Homo sapiens; conditions: Homo sapiens, HMV-2
Description: SANGER: Inhibition of human HMV-II cell growth in a cell viability assay.

JEG-3 = assay type: functional, cell-based, Homo sapiens; conditions: Homo sapiens, JEG-3
Description: SANGER: Inhibition of human JEG-3 cell growth in a cell viability assay.

KARPAS-45 = assay type: functional, cell-based; conditions: Homo sapiens
Description: SANGER: Inhibition of human KARPAS-45 cell growth in a cell viability assay.

KE-37 = assay type: functional, cell-based; conditions: Homo sapiens
Description: SANGER: Inhibition of human KE-37 cell growth in a cell viability assay.

KLE = assay type: functional, cell-based, Homo sapiens; conditions: Homo sapiens, KLE
Description: SANGER: Inhibition of human KLE cell growth in a cell viability assay.

KS-1 = assay type: functional, cell-based, Homo sapiens; conditions: Homo sapiens, KS-1
Description: SANGER: Inhibition of human KS-1 cell growth in a cell viability assay.

KU812 cell line = assay type: functional, cell-based; conditions: Homo sapiens
Description: SANGER: Inhibition of human KU812 cell growth in a cell viability assay.

KYSE-180 = assay type: functional, cell-based, Homo sapiens; conditions: Homo sapiens, KYSE-180
Description: SANGER: Inhibition of human KYSE-180 cell growth in a cell viability assay.

LoVo = assay type: functional, cell-based; conditions: Homo sapiens
Description: SANGER: Inhibition of human LoVo cell growth in a cell viability assay.

M059J = assay type: functional, cell-based, Homo sapiens; conditions: Homo sapiens, M059J
Description: SANGER: Inhibition of human M059J cell growth in a cell viability assay.

M14 = assay type: functional, cell-based, Homo sapiens; conditions: Homo sapiens, M14
Description: SANGER: Inhibition of human M14 cell growth in a cell viability assay.

MOLT-16 = assay type: functional, cell-based; conditions: Homo sapiens
Description: SANGER: Inhibition of human MOLT-16 cell growth in a cell viability assay.

MeWo = assay type: functional, cell-based, Homo sapiens; conditions: Homo sapiens, MeWo
Description: SANGER: Inhibition of human Mewo cell growth in a cell viability assay.

NCI-H1355 = assay type: functional, cell-based, Homo sapiens; conditions: Homo sapiens, NCI-H1355
Description: SANGER: Inhibition of human NCI-H1355 cell growth in a cell viability assay.

NCI-H1755 = assay type: functional, cell-based, Homo sapiens; conditions: Homo sapiens, NCI-H1755
Description: SANGER: Inhibition of human NCI-H1755 cell growth in a cell viability assay.

NCI-H292 = assay type: functional, cell-based, Homo sapiens; conditions: Homo sapiens, NCI-H292
Description: SANGER: Inhibition of human NCI-H292 cell growth in a cell viability assay.

NCI-H69 = assay type: functional, cell-based; conditions: Homo sapiens
Description: SANGER: Inhibition of human NCI-H69 cell growth in a cell viability assay.

NCI-H82 = assay type: functional, cell-based; conditions: Homo sapiens
Description: SANGER: Inhibition of human NCI-H82 cell growth in a cell viability assay.

NMC-G1 = assay type: functional, cell-based, Homo sapiens; conditions: Homo sapiens, NMC-G1
Description: SANGER: Inhibition of human NMC-G1 cell growth in a cell viability assay.

OCUB-M = assay type: functional, cell-based, Homo sapiens; conditions: Homo sapiens, OCUB-M
Description: SANGER: Inhibition of human OCUB-M cell growth in a cell viability assay.

OVCAR-4 = assay type: functional, cell-based, Homo sapiens; conditions: Homo sapiens, OVCAR-4
Description: SANGER: Inhibition of human OVCAR-4 cell growth in a cell viability assay.

P30-OHK = assay type: functional, cell-based; conditions: Homo sapiens
Description: SANGER: Inhibition of human P30-OHK cell growth in a cell viability assay.

PC-3 = assay type: functional, cell-based, Homo sapiens; conditions: Homo sapiens, PC-3
Description: SANGER: Inhibition of human PC-3 cell growth in a cell viability assay.

RKO = assay type: functional, cell-based, Homo sapiens; conditions: Homo sapiens, RKO
Description: SANGER: Inhibition of human RKO cell growth in a cell viability assay.

RPMI-8866 = assay type: functional, cell-based; conditions: Homo sapiens
Description: SANGER: Inhibition of human RPMI-8866 cell growth in a cell viability assay.

S-117 = assay type: functional, cell-based, Homo sapiens; conditions: Homo sapiens, S-117
Description: SANGER: Inhibition of human S-117 cell growth in a cell viability assay.

SCC-9 = assay type: functional, cell-based, Homo sapiens; conditions: Homo sapiens, SCC-9
Description: SANGER: Inhibition of human SCC-9 cell growth in a cell viability assay.

SF-126 = assay type: functional, cell-based, Homo sapiens; conditions: Homo sapiens, SF-126
Description: SANGER: Inhibition of human SF126 cell growth in a cell viability assay.

SK-LU-1 = assay type: functional, cell-based, Homo sapiens; conditions: Homo sapiens, SK-LU-1
Description: SANGER: Inhibition of human SK-LU-1 cell growth in a cell viability assay.

SW-620 = assay type: functional, cell-based, Homo sapiens; conditions: Homo sapiens, SW-620
Description: SANGER: Inhibition of human SW620 cell growth in a cell viability assay.

SW872 = assay type: functional, cell-based, Homo sapiens; conditions: Homo sapiens, SW872
Description: SANGER: Inhibition of human SW872 cell growth in a cell viability assay.

SiHa = assay type: functional, cell-based, Homo sapiens; conditions: Homo sapiens, SiHa
Description: SANGER: Inhibition of human SiHa cell growth in a cell viability assay.

786-0 = assay type: functional, cell-based, Homo sapiens; conditions: Homo sapiens
Description: SANGER: Inhibition of human 786-0 cell growth in a cell viability assay.

A3-KAW = assay type: functional, cell-based; conditions: Homo sapiens
Description: SANGER: Inhibition of human A3-KAW cell growth in a cell viability assay.

A388 = assay type: functional, cell-based, Homo sapiens; conditions: Homo sapiens, A388
Description: SANGER: Inhibition of human A388 cell growth in a cell viability assay.

AN3-CA = assay type: functional, cell-based; conditions: Homo sapiens
Description: SANGER: Inhibition of human AN3-CA cell growth in a cell viability assay.

AU565 = assay type: functional, cell-based, Homo sapiens; conditions: Homo sapiens, AU565
Description: SANGER: Inhibition of human AU565 cell growth in a cell viability assay.

BFTC-905 = assay type: functional, cell-based, Homo sapiens; conditions: Homo sapiens, BFTC-905
Description: SANGER: Inhibition of human BFTC-905 cell growth in a cell viability assay.

C2BBe1 = assay type: functional, cell-based, Homo sapiens; conditions: Homo sapiens, C2BBe1
Description: SANGER: Inhibition of human C2BBe1 cell growth in a cell viability assay.

C8166 = assay type: functional, cell-based; conditions: Homo sapiens
Description: SANGER: Inhibition of human C8166 cell growth in a cell viability assay.

CAL-51 = assay type: functional, cell-based, Homo sapiens; conditions: Homo sapiens, CAL-51
Description: SANGER: Inhibition of human CAL-51 cell growth in a cell viability assay.

TGW = assay type: functional, cell-based; conditions: Homo sapiens
Description: SANGER: Inhibition of human TGW cell growth in a cell viability assay.

U2OS = assay type: functional, cell-based, Homo sapiens, U-2-OS; conditions: Homo sapiens, U2OS
Description: SANGER: Inhibition of human U-2-OS cell growth in a cell viability assay.

VM-CUB-1 = assay type: functional, cell-based; conditions: Homo sapiens
Description: SANGER: Inhibition of human VM-CUB-1 cell growth in a cell viability assay.

CAPAN-1 = assay type: functional, cell-based, Homo sapiens; conditions: Homo sapiens, CAPAN-1
Description: SANGER: Inhibition of human CAPAN-1 cell growth in a cell viability assay.

COLO-668 = assay type: functional, cell-based, Homo sapiens; conditions: Homo sapiens, COLO-668
Description: SANGER: Inhibition of human COLO-668 cell growth in a cell viability assay.

## C=CCNC1=C2C[C@@H](C)C[C@H](OC)[C@H](O)[C@@H](C)/C=C(\C)[C@H](OC(N)=O)[C@@H](OC)/C=C\C=C(/C)C(=O)NC(=CC1=O)C2=O [TANESPIMYCIN]
CaR-1
  IC50: 45.5 nM
D-502MG
  IC50: > 1000 nM
DOK
  IC50: 49 nM
ESS-1
  IC50: 248 nM
EW-18
  IC50: 389 nM
EW-3
  IC50: 127 nM
HCC1954
  IC50: > 1000 nM
HCE-4
  IC50: 474 nM
HMV-2 cell line
  IC50: 120 nM
JEG-3
  IC50: 187 nM
KARPAS-45
  IC50: 379 nM
KE-37
  IC50: > 1000 nM
KLE
  IC50: > 1000 nM
KS-1
  IC50: 13.6 nM
KU812 cell line
  IC50: 340 nM
KYSE-180
  IC50: 92.6 nM
LoVo
  IC50: > 1000 nM
M059J
  IC50: 90.3 nM
M14
  IC50: 79.1 nM
MOLT-16
  IC50: > 1000 nM
MeWo
  IC50: 149 nM
NCI-H1355
  IC50: 281 nM
NCI-H1755
  IC50: 63.4 nM
NCI-H292
  IC50: 131 nM
NCI-H69
  IC50: 976 nM
NCI-H82
  IC50: > 1000 nM
NMC-G1
  IC50: 293 nM
OCUB-M
  IC50: > 1000 nM
OVCAR-4
  IC50: > 1000 nM
P30-OHK
  IC50: > 1000 nM
PC-3
  IC50: 515 nM
RKO
  IC50: 118 nM
RPMI-8866
  IC50: > 1000 nM
S-117
  IC50: 206 nM
SCC-9
  IC50: 167 nM
SF-126
  IC50: > 1000 nM
SK-LU-1
  IC50: 30.8 nM
SW-620
  IC50: 70.3 nM
SW872
  IC50: 608 nM
SiHa
  IC50: 105 nM
786-0
  IC50: 154 nM
A3-KAW
  IC50: 342 nM
A388
  IC50: 765 nM
AN3-CA
  IC50: 50 nM
AU565
  IC50: > 1000 nM
BFTC-905
  IC50: 315 nM
C2BBe1
  IC50: 222 nM
C8166
  IC50: > 1000 nM
CAL-51
  IC50: 14 nM
TGW
  IC50: > 1000 nM
U2OS
  IC50: 172 nM
VM-CUB-1
  IC50: 36.6 nM
CAPAN-1
  IC50: 248 nM
COLO-668
  IC50: > 1000 nM
